Consider 12 compounds from US20230158157A1, “POTENT AND SELECTIVE DEGRADERS OF ALK” (DANA-FARBER CANCER INSTITUTE, INC., priority 2020, published 2023).

The structures appear in SMILES notation. Where two headings read alike, the source gives them in different places.

Holding throughout (format): cell-based
The target of test [1] is T1, FAK (Homo sapiens, UniProt Q05397).
T1 construct: FAK Degradation; endogenous in cells; host or cells: H3122
The test is described as follows: FAK degradation (H3122 cells). As to conditions: for Dmax: NCI-H3122, Table 3.

For test [2], the target named is T2, EML4-ALK (Homo sapiens, UniProt Q9UM73).
T2 construct: endogenous in cells; host or cells: H3122 (NSCLC), single-cell clone after CRISPR knock-in of HiBit; the other entry of the earlier key: EML4 (Q9HC35, Echinoderm microtubule-associated protein-like 4)
Briefly: EML4-ALK HiBit degradation assay in CRISPR-tagged H3122 cells (Nano-Glo HiBit Lytic Detection). In general terms: The HiBiT peptide binds its large partner to form an active luciferase.

The test system of test [3] is H3122 cells. Briefly: CTG. As to conditions: read-out: CTG IC50.
The target of test [4] is T3, G1202R EML4-ALK V3 (Homo sapiens, UniProt Q9UM73, G1202R).
T3 construct: expressed in transfected cells; host or cells: Ba/F3; the other entry of the earlier key: EML4 (Q9HC35, Echinoderm microtubule-associated protein-like 4)
The test is described as follows: Western blot of pALK Tyr1507, ALK and tubulin in G1202R EML4-ALK V3 Ba/F3 cells. The procedure:
(§1) Cells treated with DMSO, compound 96, negative control of 96 or Loratinib at indicated concentrations (nM).
(§2) The cells were collected and washed with PBS buffer. Cell lysates were prepared by using NP40 lysis buffer (Invitrogen™) supplemented with complete protease inhibitor cocktail (Roche), PhosSTOP™ phosphatase inhibitor cocktail (Roche) and PMSF (1 mM). The lysates were cleared by centrifugation and resolved using Bolt™ 4-12% Bis-Tris plus gels and Western blotted to detect proteins of interest. Antibodies to phospho-ALK^Tyr1507 and tubulin (#14678S and #3873, Cell Signaling Technologies®) were used according to the manufacturers' instructions. For Western Blot visualization, Odyssey® Clx (Li-cor) was utilized.
A general note: In western blotting, separated proteins are transferred to a membrane and probed.

In test [5] the target is T4, WT EML4-ALK V3 (Homo sapiens, UniProt Q9UM73).
T4 construct: expressed in transfected cells; host or cells: Ba/F3; the other entry of the earlier key: EML4 (Q9HC35, Echinoderm microtubule-associated protein-like 4)
Briefly: Western blot of pALK Tyr1507, ALK and tubulin in WT EML4-ALK V3 Ba/F3 cells. The procedure:
as §1, §2

Setting [6] is: NCI-H3122, Table 3, H3122 cells, 16 hours, read-out: ALK Degradation (H3122 cells) Dmax.
Setting [7] is: Table 3, H3122 cells, 16 hours, read-out: ALK Degradation (H3122 cells) DC50.
Setting [8] is: Homo sapiens, NCI-H3122, Table 3.
Setting [9] is: compared to Alectinib and Lorlatinib.
[10] abbreviates: NCI-H3122, Table 1, first Dmax column, H3122 EML4-ALK-HiBit, 16 hours, read-out: Degradation Dmax.
Where [11] appears, read: NCI-H3122, Table 1, average Dmax, read-out: Degradation Avg. Dmax.
Setting [12] is: Table 1, first DC50 column, H3122 EML4-ALK-HiBit, 16 hours, read-out: Degradation DC50.
The mark [13] stands for this setting: Table 1, average DC50, read-out: Degradation Avg. DC50.
The mark [14] stands for this setting: Homo sapiens, NCI-H3122, Table 1.

T1 sequence (Q05397 whole entry): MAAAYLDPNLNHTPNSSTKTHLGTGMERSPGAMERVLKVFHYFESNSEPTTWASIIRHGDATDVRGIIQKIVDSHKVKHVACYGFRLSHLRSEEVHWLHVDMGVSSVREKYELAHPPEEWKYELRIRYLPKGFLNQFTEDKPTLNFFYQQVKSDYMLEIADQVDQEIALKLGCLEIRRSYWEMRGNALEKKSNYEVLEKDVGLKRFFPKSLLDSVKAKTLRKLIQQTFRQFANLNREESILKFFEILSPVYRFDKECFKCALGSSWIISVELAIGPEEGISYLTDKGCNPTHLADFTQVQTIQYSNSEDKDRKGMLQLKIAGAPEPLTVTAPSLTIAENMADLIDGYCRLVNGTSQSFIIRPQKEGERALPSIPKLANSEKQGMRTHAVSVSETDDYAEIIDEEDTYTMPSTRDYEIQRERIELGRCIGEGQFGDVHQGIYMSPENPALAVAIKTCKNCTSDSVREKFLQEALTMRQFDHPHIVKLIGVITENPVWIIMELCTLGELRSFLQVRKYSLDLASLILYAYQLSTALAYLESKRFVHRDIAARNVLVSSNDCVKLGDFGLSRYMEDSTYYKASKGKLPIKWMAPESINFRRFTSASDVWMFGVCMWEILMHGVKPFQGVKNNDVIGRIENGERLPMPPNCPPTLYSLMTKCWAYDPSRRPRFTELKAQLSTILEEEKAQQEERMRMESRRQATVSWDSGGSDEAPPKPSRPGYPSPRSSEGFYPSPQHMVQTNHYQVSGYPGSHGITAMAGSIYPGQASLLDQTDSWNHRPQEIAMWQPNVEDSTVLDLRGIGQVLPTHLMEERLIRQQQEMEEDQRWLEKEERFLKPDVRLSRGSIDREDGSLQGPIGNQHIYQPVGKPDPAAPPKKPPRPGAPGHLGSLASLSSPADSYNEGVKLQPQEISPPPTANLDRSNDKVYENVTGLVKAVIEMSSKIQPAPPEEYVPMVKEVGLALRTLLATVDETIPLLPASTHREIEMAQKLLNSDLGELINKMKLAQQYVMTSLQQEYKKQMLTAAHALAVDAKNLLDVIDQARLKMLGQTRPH
T2 sequence (Q9UM73 with tags, fused parts or gaps): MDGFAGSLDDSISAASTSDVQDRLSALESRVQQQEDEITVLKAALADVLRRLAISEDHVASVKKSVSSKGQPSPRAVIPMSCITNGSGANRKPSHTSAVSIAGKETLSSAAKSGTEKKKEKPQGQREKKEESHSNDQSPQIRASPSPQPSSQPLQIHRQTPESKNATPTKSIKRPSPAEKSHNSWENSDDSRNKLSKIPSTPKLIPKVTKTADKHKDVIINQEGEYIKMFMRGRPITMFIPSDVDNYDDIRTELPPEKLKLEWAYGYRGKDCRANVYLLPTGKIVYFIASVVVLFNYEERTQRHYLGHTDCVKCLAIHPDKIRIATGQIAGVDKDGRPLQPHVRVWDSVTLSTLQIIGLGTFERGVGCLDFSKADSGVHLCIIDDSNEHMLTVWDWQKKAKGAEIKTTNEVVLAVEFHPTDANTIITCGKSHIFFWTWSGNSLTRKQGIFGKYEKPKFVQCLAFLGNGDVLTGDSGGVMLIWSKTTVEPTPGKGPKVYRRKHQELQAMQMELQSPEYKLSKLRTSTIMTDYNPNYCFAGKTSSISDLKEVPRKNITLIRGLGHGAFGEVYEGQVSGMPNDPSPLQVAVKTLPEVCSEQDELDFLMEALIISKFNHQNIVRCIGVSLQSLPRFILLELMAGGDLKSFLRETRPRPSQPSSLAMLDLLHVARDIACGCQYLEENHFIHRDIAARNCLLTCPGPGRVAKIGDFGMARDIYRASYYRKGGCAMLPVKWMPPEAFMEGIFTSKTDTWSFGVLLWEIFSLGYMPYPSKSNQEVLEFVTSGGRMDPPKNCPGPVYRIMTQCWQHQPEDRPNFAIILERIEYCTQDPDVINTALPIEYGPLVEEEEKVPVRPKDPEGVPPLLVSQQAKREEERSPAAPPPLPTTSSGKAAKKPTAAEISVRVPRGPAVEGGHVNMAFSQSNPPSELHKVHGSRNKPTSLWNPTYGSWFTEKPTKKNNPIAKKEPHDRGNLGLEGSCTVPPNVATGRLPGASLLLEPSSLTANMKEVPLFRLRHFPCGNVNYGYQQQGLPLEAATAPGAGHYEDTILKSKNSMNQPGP
T4 sequence (Q9UM73 1058-1620 limits assumed): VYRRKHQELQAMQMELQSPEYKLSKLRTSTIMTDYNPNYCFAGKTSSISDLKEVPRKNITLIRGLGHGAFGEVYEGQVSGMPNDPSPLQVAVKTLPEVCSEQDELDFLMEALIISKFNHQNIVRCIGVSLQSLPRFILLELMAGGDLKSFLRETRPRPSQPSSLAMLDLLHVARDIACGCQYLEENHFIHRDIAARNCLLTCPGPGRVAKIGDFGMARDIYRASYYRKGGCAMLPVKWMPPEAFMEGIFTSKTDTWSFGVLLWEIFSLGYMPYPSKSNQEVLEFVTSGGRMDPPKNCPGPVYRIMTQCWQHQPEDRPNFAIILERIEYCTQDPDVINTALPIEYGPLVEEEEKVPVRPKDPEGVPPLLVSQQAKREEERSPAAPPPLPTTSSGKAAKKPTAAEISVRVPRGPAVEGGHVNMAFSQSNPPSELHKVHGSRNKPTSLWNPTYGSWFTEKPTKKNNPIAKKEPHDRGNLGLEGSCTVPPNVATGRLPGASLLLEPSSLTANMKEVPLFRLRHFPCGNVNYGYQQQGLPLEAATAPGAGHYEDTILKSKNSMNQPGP
T3 sequence (Q9UM73 1058-1620 G1202R limits assumed): as the sequence (Q9UM73 1058-1620 limits assumed) above, with G145R counted along it

In general, Dmax refers to the largest share of the target that was removed. Turning to `COc1cc(C2CCN(CCCCCC#Cc3cccc4c3CN(C3CCC(=O)NC3=O)C4=O)CC2)c(C)cc1Nc1ncc(Cl)c(Nc2ccccc2S(=O)(=O)C(C)C)n1` (stereo not shown) [compound 94, 3-(4-(7-(4-(4-((5-chloro-4-((2-(isopropylsulfonyl)phenyl)amino)pyrimidin-2-yl)amino)-5-methoxy-2-methylphenyl)piperidin-1-yl)hept-1-yn-1-yl)-1-oxoisoindolin-2-yl)piperidine-2,6-dione], the maximal degradation (Dmax) in test [1] is 86%.

Usually DC50 stands for the concentration at which degradation of the target reaches its halfway point. What is called IC50 is the midpoint of a concentration-inhibition curve. Regarding `COc1cc(C2CCN(CCCCC#Cc3cccc4c3CN(C3CCC(=O)NC3=O)C4=O)CC2)c(C)cc1Nc1ncc(Cl)c(Nc2ccccc2S(=O)(=O)C(C)C)n1` (stereo not shown) [compound 95, 3-(4-(6-(4-(4-((5-chloro-4-((2-(isopropylsulfonyl)phenyl)amino)pyrimidin-2-yl)amino)-5-methoxy-2-methylphenyl)piperidin-1-yl)hex-1-yn-1-yl)-1-oxoisoindolin-2-yl)piperidine-2,6-dione], the Dmax in test [2] (setting [6]) was determined as 73%; in test [1], 89%. Moreover, the DC50 in test [2] (setting [7]) and in test [1] (Table 3) was 1 nM throughout. For the same compound, the IC50 in test [3] (setting [8]) worked out at 4 nM.

On to `COc1cc(CCNCCCCCC#Cc2cccc3c2CN(C2CCC(=O)NC2=O)C3=O)c(C)cc1Nc1ncc(Cl)c(Nc2ccccc2S(=O)(=O)C(C)C)n1` (stereo not shown) [compound 91, 3-(4-(7-((4-((5-chloro-4-((2-(isopropylsulfonyl)phenyl)amino)pyrimidin-2-yl)amino)-5-methoxy-2-methylphenethyl)amino)hept-1-yn-1-yl)-1-oxoisoindolin-2-yl)piperidine-2,6-dione], for which, in test [1], the Dmax was determined as 85%. Also, the DC50 in test [1] (Table 3) amounted to 4 nM. The IC50 in test [3] (setting [8]) was found to be 50 nM.

Take `COc1cc(C2CCN(CC#Cc3ccc4c(c3)CN(C3CCC(=O)NC3=O)C4=O)CC2)c(C)cc1Nc1ncc(Cl)c(Nc2ccccc2S(=O)(=O)C(C)C)n1` (stereo not shown) [compound 97, 3-(5-(3-(4-(4-((5-chloro-4-((2-(isopropylsulfonyl)phenyl)amino)pyrimidin-2-yl)amino)-5-methoxy-2-methylphenyl)piperidin-1-yl)prop-1-yn-1-yl)-1-oxoisoindolin-2-yl)piperidine-2,6-dione]: in test [1], the Dmax worked out at 80%. The same compound showed a DC50 in test [1] (Table 3) of 8 nM.

Regarding `COc1cc(C2CCN(CCCCCC#Cc3cccc4c3C(=O)N(C3CCC(=O)NC3=O)C4=O)CC2)c(C)cc1Nc1ncc(Cl)c(Nc2ccccc2S(=O)(=O)C(C)C)n1` (stereo not shown) [compound 93, 4-(7-(4-(4-((5-chloro-4-((2-(isopropylsulfonyl)phenyl)amino)pyrimidin-2-yl)amino)-5-methoxy-2-methylphenyl)piperidin-1-yl)hept-1-yn-1-yl)-2-(2,6-dioxopiperidin-3-yl)isoindoline-1,3-dione], the figures for the Dmax in test [2] (setting [6]) and in test [1] were 82% and 89%, respectively. For the same compound, the DC50 in test [2] (setting [7]) came to 49 nM; in test [1] (Table 3), 24 nM. Moreover, the concentration for half-maximal inhibition (IC50) in test [3] (setting [8]) worked out at 202 nM.

For the compound `COc1cc(C2CCN(CCCC#Cc3cccc4c3CN(C3CCC(=O)NC3=O)C4=O)CC2)c(C)cc1Nc1ncc(Cl)c(Nc2ccccc2S(=O)(=O)C(C)C)n1` (stereo not shown) [compound 96, 3-(4-(5-(4-(4-((5-chloro-4-((2-(isopropylsulfonyl)phenyl)amino)pyrimidin-2-yl)amino)-5-methoxy-2-methylphenyl)piperidin-1-yl)pent-1-yn-1-yl)-1-oxoisoindolin-2-yl)piperidine-2,6-dione], the Dmax in test [2] (setting [6]) came out at 79%; in test [1], 92%. For the same compound, the DC50 in test [2] (setting [7]) is 3 nM; in test [1] (Table 3), 2 nM. In addition, the “ALK degradation by Western blot” value in test [4] (FIG. 1B, 1D) is “potent degrader”; in test [5] (FIG. 1A, 1C), “potent degrader”. For the same compound, the “pALK inhibition by Western blot” value in test [4] (setting [9]) is “significantly improved pALK inhibition compared to Alectinib and Lorlatinib”; in test [5] (setting [9]) it was “significantly improved pALK inhibition compared to Alectinib and Lorlatinib”. Besides, the 50% inhibitory concentration (IC50) in test [3] (setting [8]) was determined as 12 nM.

For `COc1cc(CCNCCCCCC#Cc2ccc3c(c2)CN(C2CCC(=O)NC2=O)C3=O)c(C)cc1Nc1ncc(Cl)c(Nc2ccccc2S(=O)(=O)C(C)C)n1` (stereo not shown) [compound 92], the Dmax in test [1] worked out at 93%. Further, in test [1] (Table 3), the DC50 was found to be 4 nM. Further, in test [3] (setting [8]), the IC50 was 50 nM.

As for `COc1cc(N2CCC(NC(=O)CCCCCCCCCC(=O)N[C@H](C(=O)N3C[C@H](O)C[C@H]3C(=O)NCc3ccc(-c4scnc4C)cc3)C(C)(C)C)CC2)ccc1Nc1ncc(Cl)c(Nc2ccccc2P(C)(C)=O)n1` [SIAIS117], the “ALK Degradation (H3122 cells) Dmax” value in test [2] (Table 3, H3122 cells, 16 hours) was 43%. For the same compound, the DC50 in test [2] (setting [7]) stood at 9 nM. For the same compound, in test [1] (Table 3), the DC50 came out at 10 nM and the “FAK Degradation (H3122 cells) Dmax” value is listed as 70%. In addition, the IC50 in test [3] (Table 3) came out at 42 nM.

Take `COc1cc(CCN(C)C(=O)CCCCCCCCNC(=O)COc2cccc3c2C(=O)N(C2CCC(=O)NC2=O)C3=O)c(C)cc1Nc1ncc(Cl)c(Nc2ccccc2P(C)(C)=O)n1` (stereo not shown) [Compound 59]: the Dmax in test [2] (NCI-H3122, Table 2, first Dmax column, H3122 EML4-ALK-HiBit, 16 hours, read-out: Degradation Dmax) amounted to 33.7%; in test [2] (NCI-H3122, Table 2, average Dmax, read-out: Degradation Avg. Dmax), 33.7%. Also, the DC50 in test [2] (Table 2, first DC50 column, H3122 EML4-ALK-HiBit, 16 hours, read-out: Degradation DC50) is 3740 nM; in test [2] (Table 2, average DC50, read-out: Degradation Avg. DC50) it was 3740 nM. The 50% inhibitory concentration (IC50) in test [3] (Homo sapiens, NCI-H3122, Table 2) came out at 1720 nM.

For `COc1cc(CCNCCCCCCCC(=O)N[C@H](C(=O)N2C[C@H](O)C[C@H]2C(=O)N[C@@H](C)c2ccc(-c3scnc3C)cc2)C(C)(C)C)c(C)cc1Nc1ncc(Cl)c(Nc2ccccc2S(=O)(=O)C(C)C)n1` [Compound 45], the greatest degradation seen (Dmax) in test [2] (setting [10]) and in test [2] (setting [11]) was 51% each time. The DC50 in test [2] (setting [12]) and in test [2] (setting [13]) was 390 nM in each case. In addition, in test [3] (setting [14]), the 50% inhibitory concentration (IC50) was found to be 106 nM.

Consider `COc1cc(CCN(C)C(=O)CCCC#Cc2cccc3c2C(=O)N(C2CCC(=O)NC2=O)C3=O)c(C)cc1Nc1ncc(Cl)c(Nc2ccccc2S(=O)(=O)C(C)C)n1` (stereo not shown) [compound 9, N-(4-((5-chloro-4-((2-(isopropylsulfonyl)phenyl)amino)pyrimidin-2-yl)amino)-5-methoxy-2-methylphenethyl)-6-(2-(2,6-dioxopiperidin-3-yl)-1,3-dioxoisoindolin-4-yl)-N-methylhex-5-ynamide], for which the maximal degradation (Dmax) in test [2] (setting [10]) and in test [2] (setting [11]) was 54.1% each time. Further, the DC50 in test [2] (setting [12]) and in test [2] (setting [13]) was 265 nM each time. The IC50 in test [3] (setting [14]) turned out to be 122 nM.

With `COc1cc(CCN(C)C(=O)CCOCCOCCNc2cccc3c2C(=O)N(C2CCC(=O)NC2=O)C3=O)c(C)cc1Nc1ncc(Cl)c(Nc2ccccc2S(=O)(=O)C(C)C)n1` (stereo not shown) [compound 4, N-(4-((5-chloro-4-((2-(isopropylsulfonyl)phenyl)amino)pyrimidin-2-yl)amino)-5-methoxy-2-methylphenethyl)-3-(2-(2-((2-(2,6-dioxopiperidin-3-yl)-1,3-dioxoisoindolin-4-yl)amino)ethoxy)ethoxy)-N-methylpropanamide], the Dmax turned out to be 44.8% in test [2] (setting [10]); 33% in test [2] (NCI-H3122, Table 1, second Dmax column, H3122 EML4-ALK-HiBit, 16 hours, read-out: Degradation Dmax); 38.9% in test [2] (setting [11]). Also, the DC50 in test [2] (setting [12]) was found to be 100 nM; in test [2] (Table 1, second DC50 column, H3122 EML4-ALK-HiBit, 16 hours, read-out: Degradation DC50), 34 nM; in test [2] (setting [13]), 67 nM. Further, the IC50 in test [3] (setting [14]) turned out to be 25.1 nM.
